The values below are quoted from earlier work in patent US11904070B2, “Tissue scaffold and scaffold composition” (Locate Therapeutics Limited, priority 2017, dated 2024).

For this data set the following is noted: at 25° C.
For polyethylene glycol 400 [PEG400], the Solubility in water entry is recorded as “Miscible”. For `C[S+](C)[O-]` [DMSO], the Solubility in water result is listed as “Miscible”. For `CC(=O)OCC(COC(C)=O)OC(C)=O` [Triacetin, triacetin], the Solubility in water is 5.8 % w/v. Consider `CN1CCCC1=O` [NMP, N-Methyl-2-pyrrolidone], for which the Solubility in water result is on record as “Miscible”. As to `CCO` [EtOH, Ethanol], the Solubility in water entry is listed as “Miscible”.

As to `OCC(O)CO` [Glycerol], the Solubility in water result was “Miscible”.
